Measured values published in patent US20160318891A1, “TONABERSAT PRODRUGS” (PROXIMAGEN LIMITED, priority 2013, published 2016).
≈ marks a conversion by molar mass, not a printed value. Where two headings read alike, the source gives them in different places.

Assays:
[1] = Solubility in aqueous solution; assay type: physicochemical
Text: In an embodiment prodrugs of the present invention are suitable for oral administration. The skilled person understands that the pH of the gastrointestinal tract changes along its length. For example, the stomach has a pH of around pH 1.5 and the GI tract after the stomach has a pH of around 5 to 7.5. For more detail see, for example, Measurement of gastrointestinal pH profiles in normal ambulant human subjects, Gut. 1988 August; 29(8): 1035-1041. Improved solubility is expected to result in improved absorption, and therefore improved oral bioavailability. Thus improved solubility at any pH value between around pH 1.5 to 8 is expected to improve oral bioavailability. Compounds of the invention were assessed for solubility in aqueous solutions having a pH of from 2 to 10. In an embodiment prodrugs of the invention have a solubility of >0.5 mg/mL in an aqueous solution having a pH of from 2 to 8. In an embodiment prodrugs have a solubility of >5.0 mg/mL, or >10.0 mg/mL, >100.0 mg/mL, or >200.0 mg/mL. In an embodiment the prodrugs have the aforementioned aqueous solubility at a pH within the range of from 4 to 8, or from 6 to 8.
In an embodiment prodrugs of the invention are administered intravenously. High prodrug solubility is advantageous in order to reduce the volume of solution administered to the patient, and to reduce the risk of damage to the circulatory system. Solubility of >10 mg/mL is preferred. Yet more preferred is solubility of >30 mg/mL or >100.0 mg/mL. Yet more preferred is solubility of >200.0 mg/mL. The solubility is measured in an aqueous solution having a pH of from 2 to 10, which pH range is advantageous for intravenous prodrug delivery. See, for example, A guide on intravenous drug compatibilities based on their pH, Nasser S C et al./Pharmacie Globale (IJCP) 2010, 5 (01)). In an embodiment the prodrugs of the claimed invention have solubility of >10 mg/mL in an aqueous solution having a pH of from 2 to 10.

hERG K+ channel = biological target: T1, hERG K+ channel (Homo sapiens, UniProt Q12809); experiment: hERG assay, IonWorks patch clamp electrophysiology; assay type: cell-based; conditions: human, pH 7.3; 11 uM; Chinese Hamster Lung cell line stably expressing hERG
T1 construct: a Chinese Hamster Lung cell line stably expressing the full length hERG channel; expressed in transfected cells; host or cells: Chinese Hamster Lung cell line
Procedure: (§1) Compounds of the invention were tested for inhibition of the human ether a go-go related gene (hERG) K^+ channel using IonWorks patch clamp electrophysiology. 8 Point concentration-response curves were generated on two occasions using 3-fold serial dilutions from the maximum assay concentration (33 uM). Electrophysiological recordings were made from a Chinese Hamster Lung cell line stably expressing the full length hERG channel. Single cell ion currents were measured in the perforated patch clamp configuration (100 ug/mL amphoterocin) at room temperature using an IonWorks Quattro instrument. The internal solution contained 140 mM KCl, 1 mM MgCl2, 1 mM EGTA and 20 mM HEPES and was buffered to pH 7.3. The external solution contained 138 mM NaCl, 2.7 mM KCl, 0.9 mM CaCl2, 0.5 mM MgCl2, 8 mM Na2HPO4 and 1.5 mM KH2PO4, and was buffered to pH 7.3. Cells were clamped at a holding potential of […] for 30 s and then stepped to +40 mV for is. This was followed by a hyperpolarising step of 1 s to […] to evoke the hERG tail current. This sequence was repeated 5 times at a frequency of 0.25 Hz. Currents were measured from the tail step at the 5th pulse, and referenced to the holding current. Compounds were incubated for 6-7 min prior to a second measurement of the hERG signal using an identical pulse train. […] A control compound (quinidine) was used.

[2] = biological target: T2, human ether a go-go related gene (hERG) K+ channel (Homo sapiens, UniProt Q12809); experiment: hERG assay, IonWorks patch clamp electrophysiology; assay type: cell-based; conditions: Chinese Hamster Lung cell line stably expressing hERG; maximum assay concentration 33 uM
T2 construct: a Chinese Hamster Lung cell line stably expressing the full length hERG channel; expressed in transfected cells; host or cells: Chinese Hamster Lung cell line
Procedure: as §1

high K+ evoked CSD [3] = conditions: cats; cited from earlier work
[4] = cited from earlier work
high K+ evoked CSD [5] = conditions: rats; cited from earlier work
[6] = rat brain; cited from earlier work
[7] = over a range of pH values including pH of 7.4; cited from earlier work
[8] = human brain; cited from earlier work

T2 sequence (Q12809 whole entry): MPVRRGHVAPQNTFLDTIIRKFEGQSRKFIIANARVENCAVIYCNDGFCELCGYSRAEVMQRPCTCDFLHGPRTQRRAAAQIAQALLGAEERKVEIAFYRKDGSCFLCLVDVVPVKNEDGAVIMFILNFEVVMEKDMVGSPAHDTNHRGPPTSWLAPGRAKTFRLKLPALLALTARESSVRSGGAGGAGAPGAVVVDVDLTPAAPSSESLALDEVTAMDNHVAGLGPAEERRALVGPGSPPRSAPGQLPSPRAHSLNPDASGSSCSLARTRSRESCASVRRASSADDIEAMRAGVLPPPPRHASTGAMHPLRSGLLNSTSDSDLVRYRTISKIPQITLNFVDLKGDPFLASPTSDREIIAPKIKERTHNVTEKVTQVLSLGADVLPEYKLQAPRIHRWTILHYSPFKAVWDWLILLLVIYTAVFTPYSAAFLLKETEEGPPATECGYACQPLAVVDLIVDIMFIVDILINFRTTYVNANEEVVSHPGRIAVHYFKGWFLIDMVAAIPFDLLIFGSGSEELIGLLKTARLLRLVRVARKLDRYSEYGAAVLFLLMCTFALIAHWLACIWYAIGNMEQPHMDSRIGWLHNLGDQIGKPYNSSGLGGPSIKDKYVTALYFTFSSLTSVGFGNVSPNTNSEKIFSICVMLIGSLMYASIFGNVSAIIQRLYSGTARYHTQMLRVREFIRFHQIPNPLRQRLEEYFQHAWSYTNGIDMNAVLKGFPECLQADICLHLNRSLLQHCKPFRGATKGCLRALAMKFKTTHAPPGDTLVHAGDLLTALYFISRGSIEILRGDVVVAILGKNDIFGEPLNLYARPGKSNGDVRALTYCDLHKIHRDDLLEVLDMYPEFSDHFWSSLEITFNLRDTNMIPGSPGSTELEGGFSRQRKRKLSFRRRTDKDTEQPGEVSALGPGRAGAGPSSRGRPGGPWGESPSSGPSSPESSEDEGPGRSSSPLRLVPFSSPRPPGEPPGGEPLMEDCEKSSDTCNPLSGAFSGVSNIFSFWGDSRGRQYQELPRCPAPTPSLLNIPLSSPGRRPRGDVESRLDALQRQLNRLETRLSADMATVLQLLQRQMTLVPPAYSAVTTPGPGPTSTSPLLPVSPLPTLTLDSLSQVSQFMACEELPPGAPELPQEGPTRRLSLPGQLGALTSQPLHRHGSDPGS
T1 sequence (Q12809 whole entry): as above

Structure (SMILES): CN[C@@H](C)C(=O)O[C@H]1[C@@H](NC(=O)c2ccc(F)c(Cl)c2)c2cc(C(C)=O)ccc2OC1(C)C.Cl [Example 8, (3S,4S)-6-Acetyl-4-[(3-chloro-4-fluorobenzene)amido]-2,2-dimethyl-3,4-dihydro-2H-1-benzopyran-3-yl (2S)-2-(methylamino)propanoate hydrochloride]
- solubility ([1]; pH 5.1, aqueous buffer): > 10 mg/mL

Structure (SMILES): CC(=O)c1ccc2c(c1)[C@H](NC(=O)c1ccc(F)c(Cl)c1)[C@H](OC(=O)[C@@H](N)CCCCN)C(C)(C)O2.Cl.Cl [Example 9, (3S,4S)-6-Acetyl-4-[(3-chloro-4-fluorobenzene)amido]-2,2-dimethyl-3,4-dihydro-2H-1-benzopyran-3-yl (2S)-2,6-diaminohexanoate dihydrochloride]
- inhibition at 11 µM (hERG K+ channel): 0%
- solubility ([1]; pH 4.4, aqueous buffer): > 10 mg/mL

Structure (SMILES): CC(=O)c1ccc2c(c1)[C@H](NC(=O)c1ccc(F)c(Cl)c1)[C@H](OC(=O)[C@H](C)N)C(C)(C)O2.Cl [Example 1, (3S,4S)-6-Acetyl-4-[(3-chloro-4-fluorobenzene)amido]-2,2-dimethyl-3,4-dihydro-2H-1-benzopyran-3-yl (2S)-2-aminopropanoate hydrochloride]
- IC50 [2]: 6 µM
- solubility ([1]; aqueous buffer, pH 4.0): > 10 mg/mL

Structure (SMILES): CC(=O)c1ccc2c(c1)[C@H](NC(=O)c1ccc(F)c(Cl)c1)[C@H](OCOC[C@@H](O)CO)C(C)(C)O2 [Example 16, N-[(3S,4S)-6-Acetyl-3-{[(2S)-2,3-dihydroxypropoxy]methoxy}-2,2-dimethyl-3,4-dihydro-2H-1-benzopyran-4-yl]-3-chloro-4-fluorobenzamide]
- solubility ([1]; aqueous buffer, pH 3.0): < 1 mg/mL

Structure (SMILES): CC(=O)c1ccc2c(c1)[C@H](NC(=O)c1ccc(F)c(Cl)c1)[C@H](OC(=O)[C@@H](N)CCC(N)=O)C(C)(C)O2.Cl [Example 11, (3S,4S)-6-Acetyl-4-[(3-chloro-4-fluorobenzene)amido]-2,2-dimethyl-3,4-dihydro-2H-1-benzopyran-3-yl (2S)-2-amino-4-carbamoylbutanoate hydrochloride]
- solubility ([1]; pH 4.6, aqueous buffer): > 2 mg/mL

Structure (SMILES): CC(=O)c1ccc2c(c1)[C@H](NC(=O)c1ccc(F)c(Cl)c1)[C@H](OC(=O)[C@@H](N)CC(N)=O)C(C)(C)O2.Cl [Example 10, (3S,4S)-6-Acetyl-4-[(3-chloro-4-fluorobenzene)amido]-2,2-dimethyl-3,4-dihydro-2H-1-benzopyran-3-yl (2S)-2-amino-3-carbamoylpropanoate hydrochloride]
- inhibition at 11 µM (hERG K+ channel): 18%
- solubility ([1]; pH 4.4, aqueous buffer): < 1 mg/mL

Structure (SMILES): CC(=O)c1ccc2c(c1)[C@H](NC(=O)c1ccc(F)c(Cl)c1)[C@H](OC(=O)[C@@H]1CCCN1)C(C)(C)O2.Cl [Example 5, (3S,4S)-6-Acetyl-4-[(3-chloro-4-fluorobenzene)amido]-2,2-dimethyl-3,4-dihydro-2H-1-benzopyran-3-yl (2S)-pyrrolidine-2-carboxylate hydrochloride]
- IC50 [2]: 1.4 µM
- solubility ([1]; pH 4.4, aqueous buffer): > 10 mg/mL

Structure (SMILES): CC(=O)c1ccc2c(c1)[C@H](NC(=O)c1ccc(F)c(Cl)c1)[C@H](OC(=O)[C@@H](N)CCCNC(=N)N)C(C)(C)O2.Cl.Cl [Example 12, (3S,4S)-6-Acetyl-4-[(3-chloro-4-fluorobenzene)amido]-2,2-dimethyl-3,4-dihydro-2H-1-benzopyran-3-yl (2S)-2-amino-5-carbamimidamidopentanoate dihydrochloride]
- inhibition at 11 µM (hERG K+ channel): 9%
- solubility ([1]; pH 4.4, aqueous buffer): > 10 mg/mL

Structure (SMILES): CC(=O)c1ccc2c(c1)[C@H](NC(=O)c1ccc(F)c(Cl)c1)[C@H](O)C(C)(C)O2 [Tonabersat]
- inhibition of high K+ evoked CSD (high K+ evoked CSD [3]): inhibits high K+ evoked CSD
- log P [4]: 3.32
- inhibition of high K+ evoked CSD (high K+ evoked CSD [5]): inhibits high K+ evoked CSD
- binding to unique stereo-selective site [6]: binds selectively and with high affinity
- aqueous solubility [7]: 0.025 mg/mL (≈ 63.8 µM)
- binding to unique stereo-selective site [8]: binds selectively and with high affinity

Structure (SMILES): CC(=O)c1ccc2c(c1)[C@H](NC(=O)c1ccc(F)c(Cl)c1)[C@H](OC(=O)[C@H](N)CC(C)C)C(C)(C)O2.Cl [Example 4, (3S,4S)-6-Acetyl-4-[(3-chloro-4-fluorobenzene)amido]-2,2-dimethyl-3,4-dihydro-2H-1-benzopyran-3-yl (2R)-2-amino-4-methylpentanoate hydrochloride]
- solubility ([1]; pH 4.2, aqueous buffer): > 10 mg/mL

Structure (SMILES): CC(=O)c1ccc2c(c1)[C@H](NC(=O)c1ccc(F)c(Cl)c1)[C@H](OC(=O)[C@@H](N)C(C)C)C(C)(C)O2.Cl [Example 2, (3S,4S)-6-Acetyl-4-[(3-chloro-4-fluorobenzene)amido]-2,2-dimethyl-3,4-dihydro-2H-1-benzopyran-3-yl (2S)-2-amino-3-methylbutanoate hydrochloride]
- inhibition at 11 µM (hERG K+ channel): 38%
- solubility ([1]; pH 4.4, aqueous buffer): ~5 mg/mL

Structure (SMILES): CC(=O)c1ccc2c(c1)[C@H](NC(=O)c1ccc(F)c(Cl)c1)[C@H](OC(=O)[C@@H](N)CC(=O)O)C(C)(C)O2 [Example 13, (3S)-4-{[(3S,4S)-6-Acetyl-4-[(3-chloro-4-fluorobenzene)amido]-2,2-dimethyl-3,4-dihydro-2H-1-benzopyran-3-yl]oxy}-3-amino-4-oxobutanoic acid; trifluoroacetic acid]
- inhibition at 11 µM (hERG K+ channel): 19%
- solubility ([1]; pH 6.5, aqueous buffer): > 2 mg/mL

Structure (SMILES): CC(=O)c1ccc2c(c1)[C@H](NC(=O)c1ccc(F)c(Cl)c1)[C@H](OC(=O)[C@@H](N)CCC(=O)O)C(C)(C)O2 [Example 14, (4S)-5-{[(3S,4S)-6-Acetyl-4-[(3-chloro-4-fluorobenzene)amido]-2,2-dimethyl-3,4-dihydro-2H-1-benzopyran-3-yl]oxy}-4-amino-5-oxopentanoic acid; trifluoroacetic acid]
- inhibition at 11 µM (hERG K+ channel): 8%
- solubility ([1]; pH 4.6, aqueous buffer): > 2 mg/mL

Structure (SMILES): CC(=O)c1ccc2c(c1)[C@H](NC(=O)c1ccc(F)c(Cl)c1)[C@H](OC(=O)C(C)(C)N)C(C)(C)O2.Cl [Example 6, (3S,4S)-6-Acetyl-4-[(3-chloro-4-fluorobenzene)amido]-2,2-dimethyl-3,4-dihydro-2H-1-benzopyran-3-yl 2-amino-2-methylpropanoate hydrochloride]
- solubility ([1]; pH 4.7, aqueous buffer): > 10 mg/mL

Structure (SMILES): CC(=O)c1ccc2c(c1)[C@H](NC(=O)c1ccc(F)c(Cl)c1)[C@H](OC(=O)[C@H](N)C(C)C)C(C)(C)O2.Cl [Example 3, (3S,4S)-6-Acetyl-4-[(3-chloro-4-fluorobenzene)amido]-2,2-dimethyl-3,4-dihydro-2H-1-benzopyran-3-yl (2R)-2-amino-3-methylbutanoate hydrochloride]
- IC50 [2]: 4.3 µM
- solubility ([1]; pH 4.8, aqueous buffer): < 1 mg/mL
